Measured values from publication PMC6271245, “Discovery of Gramine Derivatives That Inhibit the Early Stage of EV71 Replication in Vitro” (Molecules, 2014).
Values after ≈ are worked out from the molar mass of the structure shown.

Test system: Enterovirus 71 (EV71)
Assay: Inhibition of EV71-induced cytopathogenicity (CPE) in Vero cells, MTT
Format: cell-based
Conditions: Enterovirus A, EV71, Vero, 48 h, read-out: EC50 (µg/mL) Vero
Experimental: (§1) The antiviral activities of gramine and its derivatives against EV71 based on inhibition of virus-induced cytopathogenicity effects (CPEs) in African green monkey kidney cells (Vero) and rhabdomyosarcoma cells (RD) were examined. The cytotoxic effects were also evaluated. The inhibitory activities expressed as half maximal effective concentration (EC50) values and selectivity indexes (SI) for the target compounds are presented in Table 1, and the dose-dependent antiviral effects are shown in Figure 1A.
Figure 1 Gramine and its synthetic derivatives inhibited virus-induced CPE. (A) Vero cells were infected with 100 TCID50 of EV71 mixed with serial dilutions of tested compounds for 1.5 h at 37 °C; the inoculum was aspirated and cells were incubated with DMEM/tested compounds at 37 °C, 5% CO2 for 48 h pi. The viability of the cells was determined with an MTT assay; (B) Morphology image of Vero and RD cells treated with compounds 4a, 4i, 4r, and 4s for 48 h pi. (magnification, 20×).
(§2) The activity of compounds against EV71 was determined based on the inhibition of virus-induced cytopathogenicity effects (CPEs) in acutely infected cells. Vero and RD cells grown to 90% confluency in 96-well dishes were washed with phosphate buffered saline (PBS) and infected with 100 TCID50 of EV71 mixed with serial dilutions of tested compounds for 1.5 h at 37 °C. The inoculum was aspirated and cells were incubated with DMEM and test compounds at 37 °C, 5% CO2 for 48 h. The CPEs were observed microscopically and the viability of the cells was determined with a 3-(4,5-dimethylthiazol-2-yl)-2,5-diphenyltetrazolium bromide (MTT) assay. The concentrations required for the test compounds to achieve 50% protection from virus-induced cytopathogenicity (EC50) were determined. Adverse effects of these compounds on the host cells were also assessed by means of the MTT-method; by exposing uninfected cells to various concentrations of test compounds for 48 h at 37 °C, the viability of the cells was detected. The 50% cell cytotoxic concentrations (CC50) of compounds were calculated with the SPSS software (SPSS, Chicago, IL, USA). Selectivity indexes were calculated as the ratio of CC50: EC50.
(§3) Cell viability was assessed by an MTT assay, which functions based on the reduction of a MTT into formazan dye by active mitochondria. The cells were treated with 100 µL of MTT (1 mg/mL, Sigma, St. Louis, MO, USA) and incubated at 37 °C for 4 h. The reaction was blocked by DMSO and measured in a microplate reader (Bio-Tek Instruments, Winooski, VT, USA) at 492 nm. The untreated control was arbitrarily set as 100%.

**Q.** With `c1ccc(C(Nc2nc3ccccc3s2)c2c[nH]c3ccccc23)nc1` (stereo not drawn) [Compound 4s] as the compound, how does the EC50 read?
**A.** The EC50 was 7.6 ± 2.5 µg/mL (≈ 21.3 µM).

Same assay, conditions: Enterovirus A; concentration for 50% protection from virus-induced cytopathogenicity; Vero cells, 100 TCID50 EV71, 48 h, MTT; mean ± SD of three experiments; read-out: EC50 (µg/mL) Vero

**Q.** For `c1ccc(C(Nc2ccccn2)c2c[nH]c3ccccc23)cc1` (stereo not drawn) [Compound 4a], which EC50 is on record?
**A.** The EC50 was 12.7 ± 3.2 µg/mL (≈ 42.4 µM).

**Q.** For `Cn1cc(C(Nc2ccccn2)c2ccc(F)cc2)c2ccccc21` (stereo not drawn) [Compound 4i], which EC50 is on record?
**A.** Its EC50 is 5.5 ± 1.6 µg/mL (≈ 16.6 µM).

**Q.** Which EC50 does the source give for `Cn1cc(C(Nc2nc3ccccc3s2)c2ccccc2F)c2ccccc21` (stereo not drawn) [Compound 4r] here?
**A.** Its EC50 is 9.9 ± 1.4 µg/mL (≈ 25.5 µM).

Test system: not listed separately
Assay: Cytotoxicity on uninfected Vero cells, MTT
Format: cell-based
Conditions: African green monkey; concentration reducing cell viability by 50%; uninfected Vero cells, 48 h, MTT; read-out: CC50 (µg/mL) Vero
Experimental: as §1, §2, §3

**Q.** Which CC50 at 48 h does the source give for `c1ccc(C(Nc2ccccn2)c2c[nH]c3ccccc23)cc1` (stereo not drawn) [Compound 4a] here?
**A.** Its CC50 at 48 h is 32.6 ± 3.5 µg/mL (≈ 109 µM).

**Q.** For `Cn1cc(C(Nc2ccccn2)c2ccc(F)cc2)c2ccccc21` (stereo not drawn) [Compound 4i], which CC50 at 48 h is on record?
**A.** The CC50 at 48 h was 71.1 ± 3.8 µg/mL (≈ 215 µM).

**Q.** With `Cn1cc(C(Nc2nc3ccccc3s2)c2ccccc2F)c2ccccc21` (stereo not drawn) [Compound 4r] as the compound, how does the CC50 at 48 h read?
**A.** Its CC50 at 48 h is 132 ± 8.3 µg/mL (≈ 342 µM).

**Q.** Which CC50 at 48 h does the source give for `c1ccc(C(Nc2nc3ccccc3s2)c2c[nH]c3ccccc23)nc1` (stereo not drawn) [Compound 4s] here?
**A.** Its CC50 at 48 h is 109 ± 16.8 µg/mL (≈ 305 µM).

Test system: EV71
Assay: Direct inactivation of virions (virucidal test), TCID50 titration
Format: cell-based, Enterovirus 71
Conditions: 10^4 TCID50 EV71 incubated with 20 µg/mL 4a, 40 µg/mL 4i, 80 µg/mL 4r or 4s for 24 h at 4 °C; data not shown
Experimental: Based on structure specificity, antiviral activity, and selectivity therapeutic index, compounds 4a, 4i, 4r and 4s were chosen for further investigation on modes of action against EV71 infection. To determine whether these gramine derivatives inactivated virions directly, 10^4 TCID50 (median tissue culture infective dose) of EV71 suspension was incubated with 20 µg/mL 4a, 40 µg/mL 4i, or 80 µg/mL 4r or 4s for 24 h at 4 °C; subsequently, the virus titers in the mixture were measured by inoculating 100-fold dilution of the mixtures beyond the effective concentrations of the compounds into the host cells. The TCID50 values were calculated by the Reed-Muench method based on the CPE observed on day 2 post inoculation (pi). […] Thus, these compounds appear not to be virucidal for the viruses tested.
The virus suspension, serially diluted 10-fold with DMEM containing 2% FBS, was inoculated to cells in a 96-well plate. After 1 h incubation at 37 °C in 5% CO2, unbinding virus was washed out and MM was added to the cells. After 2 days, the infected cells were monitored for cytopathic effects (CPEs). The virus titer was calculated by the Reed–Muench method.

**Q.** With `c1ccc(C(Nc2ccccn2)c2c[nH]c3ccccc23)cc1` (stereo not drawn) [Compound 4a] as the compound, how does the “virus titers of mixture with vs without compound (virucidal effect)” value read?
**A.** The value was “No significant difference in virus titers”.

**Q.** With `Cn1cc(C(Nc2ccccn2)c2ccc(F)cc2)c2ccccc21` (stereo not drawn) [Compound 4i] as the compound, how does the “virus titers of mixture with vs without compound (virucidal effect)” value read?
**A.** The value was “No significant difference in virus titers”.

**Q.** With `Cn1cc(C(Nc2nc3ccccc3s2)c2ccccc2F)c2ccccc21` (stereo not drawn) [Compound 4r] as the compound, how does the “virus titers of mixture with vs without compound (virucidal effect)” value read?
**A.** Its value is “No significant difference in virus titers”.

**Q.** Which “virus titers of mixture with vs without compound (virucidal effect)” value does the source give for `c1ccc(C(Nc2nc3ccccc3s2)c2c[nH]c3ccccc23)nc1` (stereo not drawn) [Compound 4s] here?
**A.** Its value is “No significant difference in virus titers”.

Test system: EV71
Assay: Time-of-addition assay, progeny virus yield
Format: cell-based, Enterovirus 71
Conditions: compound present -1-10 h pi (similar for 0–10 h and 2–10 h); 10 µg/mL 4a, 20 µg/mL 4i, 40 µg/mL 4r or 4s; RD cells; 12 h pi
Experimental: To further understand the mechanisms of these gramine derivatives against EV71 propagation in cells, a time-of-addition experiment was performed. For this experiment, 10 µg/mL 4a, 20 µg/mL 4i, or 40 µg/mL 4r or 4s were added to infected cultures at different time periods (with 2 h intervals) and the reductions in virus yield relative to untreated cultures were determined at 12 h pi. […] With drugs treatments during other periods after EV71 infection, a gradual increase of viral yields was observed, reflecting the loss of the antiviral effects of the compounds. Results from this experiment indicate that these gramine derivatives may exert antiviral effects via the same action mechanism and mainly interfere with the early events of virus replication.
Figure 3 Time-of-addition assay. 10 µg/mL 4a, 20 µg/mL 4i, or 40 µg/mL 4r or 4s were added to RD cells at different time periods after EV71 infection. At 12 h pi, the progeny virus yield was determined (−1–0 h: viral infection period; 0–10 h: period for virus proliferation in the cells). Values are represented as the mean ± standard deviation.
Time-of-addition experiments were carried out, to estimate the point where the compound interfered with the replication cycle of EV71. The RD cells were infected with 100 TCID50 of EV71 and then 10 µg/mL 4a, 20 µg/mL 4i, or 40 µg/mL 4r or 4s was added at different time phases (−1–0 h, 0–10 h, 2–10 h, 4–10 h, 6–10 h, 8–10 h and −1–10 h pi, where −1–0 h is the viral infection period and 0–10 h is the period for virus proliferation in the cells). The cells and supernatants were harvested at […] and subjected to three freeze–thaw cycles, after which the viruses were titered by the Reed-Muench method.

**Q.** With `c1ccc(C(Nc2ccccn2)c2c[nH]c3ccccc23)cc1` (stereo not drawn) [Compound 4a] as the compound, how does the “titers of the progeny virus, time of addition” value (shortened to “titers of the progeny virus”) read?
**A.** The value was “strongly reduced”.

**Q.** Which “titers of the progeny virus” value does the source give for `Cn1cc(C(Nc2ccccn2)c2ccc(F)cc2)c2ccccc21` (stereo not drawn) [Compound 4i] here?
**A.** Its value is “strongly reduced”.

**Q.** For `Cn1cc(C(Nc2nc3ccccc3s2)c2ccccc2F)c2ccccc21` (stereo not drawn) [Compound 4r], which “titers of the progeny virus” value is on record?
**A.** Its value is “strongly reduced”.

**Q.** With `c1ccc(C(Nc2nc3ccccc3s2)c2c[nH]c3ccccc23)nc1` (stereo not drawn) [Compound 4s] as the compound, how does the “titers of the progeny virus” value read?
**A.** Its value is “strongly reduced”.

Test system: EV71
Assay: Analysis of effective stage (treatment before, during or post infection) in RD cells
Format: cell-based, Enterovirus 71
Conditions: up to a concentration of 40 µg/mL

**Q.** Which morphological cytotoxicity does the source give for `Cn1cc(C(Nc2nc3ccccc3s2)c2ccccc2F)c2ccccc21` (stereo not drawn) [Compound 4r] here?
**A.** The morphological cytotoxicity was “no morphological cytotoxicity was observed”.

**Q.** With `c1ccc(C(Nc2nc3ccccc3s2)c2c[nH]c3ccccc23)nc1` (stereo not drawn) [Compound 4s] as the compound, how does the morphological cytotoxicity read?
**A.** Its morphological cytotoxicity is “no morphological cytotoxicity was observed”.
